Source: PubChem BioAssay (NCI)
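Results reflect a 48-hour exposure of cells in 96-well plates to compound at five concentrations. TGI marks complete inhibition of growth.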

Columns and labels:
Test in all cases: DTP human tumour cell line panel, 48 h
DU-145 prostate = tested on: DU-145 prostate
MDA-N = tested on: MDA-N
U251 CNS = tested on: U251 CNS
UACC-257 melanoma = tested on: UACC-257 melanoma
HS 578T breast = tested on: HS 578T breast
NCI-H23 lung = tested on: NCI-H23 lung
PC-3 prostate = tested on: PC-3 prostate
SK-MEL-5 melanoma = tested on: SK-MEL-5 melanoma
MDA-MB-435 = tested on: MDA-MB-435
T-47D breast = tested on: T-47D breast
MDA-MB-231 breast = tested on: MDA-MB-231 breast
LXFL 529 NSCLC = tested on: LXFL 529 NSCLC
DMS 114 small cell lung = tested on: DMS 114 small cell lung
KM20L2 colon = tested on: KM20L2 colon
HOP-62 NSCLC = tested on: HOP-62 NSCLC
NCI-H226 lung = tested on: NCI-H226 lung
SK-MEL-2 melanoma = tested on: SK-MEL-2 melanoma
M19-MEL melanoma = tested on: M19-MEL melanoma
DMS 273 small cell lung = tested on: DMS 273 small cell lung
MALME-3M melanoma = tested on: MALME-3M melanoma

| Structure (SMILES) | TGI (DU-145 prostate) [µM] | TGI (MDA-N) [µM] | TGI (U251 CNS) [µM] | TGI (UACC-257 melanoma) [µM] | TGI (HS 578T breast) [µM] | TGI (NCI-H23 lung) [µM] | TGI (PC-3 prostate) [µM] | TGI (SK-MEL-5 melanoma) [µM] | TGI (MDA-MB-435) [µM] | TGI (T-47D breast) [µM] | TGI (MDA-MB-231 breast) [µM] | TGI (LXFL 529 NSCLC) [µM] | TGI (DMS 114 small cell lung) [µM] | TGI (KM20L2 colon) [µM] | TGI (HOP-62 NSCLC) [µM] | TGI (NCI-H226 lung) [µM] | TGI (SK-MEL-2 melanoma) [µM] | TGI (M19-MEL melanoma) [µM] | TGI (DMS 273 small cell lung) [µM] | TGI (MALME-3M melanoma) [µM] |
| --- | --- | --- | --- | --- | --- | --- | --- | --- | --- | --- | --- | --- | --- | --- | --- | --- | --- | --- | --- | --- |
| CCOC(=O)C1=NN(c2ccc(Cl)cc2)C2=CC(C)=NN(C)C(=S)N21 | > 100 | > 100 | 59.2 | > 100 | > 100 | > 100 | > 100 | > 100 | > 100 | 94.8 | > 100 |  |  |  |  |  |  |  |  |  |
| COc1ccc(/C=N/n2cnc3c(c2=O)S/C(=C2/SC(=S)N(c4ccc(C)cc4)C2=O)N3c2ccccc2)cc1 |  |  |  |  |  |  |  |  |  |  |  | > 100 | > 100 | > 100 | 70.9 | > 100 | > 100 | > 100 | > 100 | 60.3 |
